In US12252524B2, “GIP/GLP1 co-agonist compounds” (Eli Lilly and Company, priority 2018, dated 2025) one finds EC50 data, which are given here for six compounds.

For experiment [1], the target named is human GLP-1 receptor (GLP-1R) (Homo sapiens, UniProt P43220). Kind of experiment: cAMP pharmacological functional assay in presence of casein, hGLP-1R. Format: cell-based. The following applies: HEK293 cells expressing hGLP-1R, 0.1% Casein, geometric mean; read-out: hGLP1R cAMP Rel EC50 nM (SEM, n).
human GLP-1 receptor (GLP-1R), sequence (P43220 24-463): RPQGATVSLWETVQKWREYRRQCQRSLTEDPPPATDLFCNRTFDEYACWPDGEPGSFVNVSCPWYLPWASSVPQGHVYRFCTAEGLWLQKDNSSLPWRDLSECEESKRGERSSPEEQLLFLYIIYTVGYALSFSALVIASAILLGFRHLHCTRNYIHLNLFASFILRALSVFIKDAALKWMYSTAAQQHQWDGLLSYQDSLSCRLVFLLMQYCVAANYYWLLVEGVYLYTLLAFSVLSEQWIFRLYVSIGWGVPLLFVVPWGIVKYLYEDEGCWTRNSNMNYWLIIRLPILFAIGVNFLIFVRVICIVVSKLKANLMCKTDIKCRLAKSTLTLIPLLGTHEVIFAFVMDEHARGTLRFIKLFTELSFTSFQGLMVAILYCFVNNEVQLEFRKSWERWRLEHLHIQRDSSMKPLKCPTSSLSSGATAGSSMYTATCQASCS
For experiment [2], the target named is T1, gastric inhibitory peptide receptor (GIPR) (Homo sapiens, UniProt P48546).
T1 sequence (P48546 22-466): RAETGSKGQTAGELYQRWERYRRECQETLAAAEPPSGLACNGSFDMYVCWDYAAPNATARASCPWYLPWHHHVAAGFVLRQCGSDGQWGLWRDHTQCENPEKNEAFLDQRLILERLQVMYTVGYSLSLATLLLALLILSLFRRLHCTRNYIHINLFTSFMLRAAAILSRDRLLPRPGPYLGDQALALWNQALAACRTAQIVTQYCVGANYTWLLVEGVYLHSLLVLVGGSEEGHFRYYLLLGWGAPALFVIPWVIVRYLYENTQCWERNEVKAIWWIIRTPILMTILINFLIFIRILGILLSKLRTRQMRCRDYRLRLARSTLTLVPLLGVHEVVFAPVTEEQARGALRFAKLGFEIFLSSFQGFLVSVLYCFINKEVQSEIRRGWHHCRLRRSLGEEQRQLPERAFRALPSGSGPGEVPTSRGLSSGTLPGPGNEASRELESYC
Description: cAMP pharmacological functional assay in presence of casein, hGIPR. The experiment is classed as cell-based. The following applies: HEK293 cells expressing hGIPR, 0.1% Casein, geometric mean; read-out: hGIPR cAMP Rel EC50 nM (SEM, n).

Numbered stars: 1 amine (or outer) side, 2 acyl side, 3 side chain; on linkers, the order of the positions; unused ones are H or OH. Square brackets hold non-standard residues; d marks the D form. Side chains are listed from the residue outwards. Peptide text beside a SMILES is read from it. * marks the point of attachment. C20 diacid = O=C(O)CCCCCCCCCCCCCCCCCCC(=O)*; C18 diacid = O=C(O)CCCCCCCCCCCCCCCCC(=O)*; αMePhe(2-F) = C[C@](N)(Cc1ccccc1F)C(=O)O; γGlu = O=C(O)[C@H](CCC(=O)[*:2])N[*:1]; αMeF = C[C@](N)(Cc1ccccc1)C(=O)O; αMeL = CC(C)C[C@](C)(N)C(=O)O; AEEA = NCCOCCOCC(=O)O; Aib = CC(C)(N)C(=O)O

Turning to `CC[C@H](C)[C@H](NC(=O)[C@H](CC(C)C)NC(=O)[C@H](Cc1ccc(O)cc1)NC(=O)[C@@H](CCC(=O)O)NC(=O)[C@@H](NC(=O)[C@H](Cc1ccccc1)NC(=O)[C@@H](NC(=O)C(C)(C)NC(=O)[C@H](CCC(N)=O)NC(=O)[C@H](C)NC(=O)[C@H](CCCCNC(=O)COCCOCCNC(=O)COCCOCCNC(=O)CC[C@H](NC(=O)CCCCCCCCCCCCCCCCCCC(=O)O)C(=O)O)NC(=O)[C@H](CCC(=O)O)NC(=O)[C@H](CC(=O)O)NC(=O)[C@H](CC(C)C)NC(=O)[C@](C)(CC(C)C)NC(=O)[C@@H](NC(=O)[C@H](CO)NC(=O)[C@H](Cc1c[nH]cn1)NC(=O)[C@H](CC(=O)O)NC(=O)[C@H](CO)NC(=O)[C@@H](NC(=O)[C@](C)(Cc1ccccc1F)NC(=O)[C@@H](NC(=O)CNC(=O)[C@H](CCC(=O)O)NC(=O)C(C)(C)NC(=O)[C@@H](N)Cc1ccc(O)cc1)[C@@H](C)O)[C@@H](C)O)[C@@H](C)CC)[C@@H](C)O)[C@@H](C)CC)C(=O)N[C@H](CCC(=O)O)C(=O)NCC(=O)NCC(=O)N1CCC[C@H]1C(=O)N[C@@H](CO)C(=O)N[C@@H](CO)C(=O)NCC(=O)N[C@@H](C)C(=O)N1CCC[C@H]1C(=O)N1CCC[C@H]1C(=O)N1CCC[C@H]1C(=O)N[C@@H](CO)C(N)=O` [Example 164] (H-Y[Aib]EGT[αMePhe(2-F)]TSDHSI[αMeL]LDEK([AEEA-AEEA-γGlu-C20 diacid])AQ[Aib]TFI[dE]YLI[dE]GGPSSGAPPPS-NH2), the results for the EC50 in experiment [1] and in experiment [2] were 15.6 nM and 3.09 nM, respectively.

Turning to `CC[C@H](C)[C@H](NC(=O)[C@H](CC(C)C)NC(=O)[C@](C)(Cc1ccccc1)NC(=O)[C@@H](CCC(=O)O)NC(=O)[C@@H](NC(=O)[C@H](Cc1ccccc1)NC(=O)[C@@H](NC(=O)C(C)(C)NC(=O)[C@H](CCC(N)=O)NC(=O)[C@H](C)NC(=O)[C@H](CCCCNC(=O)COCCOCCNC(=O)COCCOCCNC(=O)CC[C@H](NC(=O)CCCCCCCCCCCCCCCCCCC(=O)O)C(=O)O)NC(=O)[C@H](CCC(=O)O)NC(=O)[C@H](CC(=O)O)NC(=O)[C@H](CC(C)C)NC(=O)[C@](C)(CC(C)C)NC(=O)[C@@H](NC(=O)[C@H](CO)NC(=O)[C@H](Cc1c[nH]cn1)NC(=O)[C@H](CC(=O)O)NC(=O)[C@H](CO)NC(=O)[C@@H](NC(=O)[C@](C)(Cc1ccccc1F)NC(=O)[C@@H](NC(=O)CNC(=O)[C@H](CCC(=O)O)NC(=O)C(C)(C)NC(=O)[C@@H](N)Cc1ccc(O)cc1)[C@@H](C)O)[C@@H](C)O)[C@@H](C)CC)[C@@H](C)O)[C@@H](C)CC)C(=O)N[C@H](CCC(=O)O)C(=O)NCC(=O)NCC(=O)N1CCC[C@H]1C(=O)N[C@@H](CO)C(=O)N[C@@H](CO)C(=O)NCC(=O)N[C@@H](C)C(=O)N1CCC[C@H]1C(=O)N1CCC[C@H]1C(=O)N1CCC[C@H]1C(=O)N[C@@H](CO)C(N)=O` [Example 165] (H-Y[Aib]EGT[αMePhe(2-F)]TSDHSI[αMeL]LDEK([AEEA-AEEA-γGlu-C20 diacid])AQ[Aib]TFI[dE][αMeF]LI[dE]GGPSSGAPPPS-NH2), the figures for the EC50 in experiment [1] and in experiment [2] were 5.81 nM and 1.04 nM, respectively.

As to `CC[C@H](C)[C@H](NC(=O)[C@H](CC(C)C)NC(=O)[C@H](Cc1ccc(O)cc1)NC(=O)[C@@H](CCC(=O)O)NC(=O)[C@@H](NC(=O)[C@H](Cc1ccccc1)NC(=O)[C@@H](NC(=O)C(C)(C)NC(=O)[C@H](CCC(N)=O)NC(=O)[C@H](C)NC(=O)[C@H](CCCCNC(=O)COCCOCCNC(=O)COCCOCCNC(=O)CC[C@H](NC(=O)CCCCCCCCCCCCCCCCCCC(=O)O)C(=O)O)NC(=O)[C@H](CCC(=O)O)NC(=O)[C@H](CC(=O)O)NC(=O)[C@H](CC(C)C)NC(=O)[C@](C)(CC(C)C)NC(=O)[C@@H](NC(=O)[C@H](CO)NC(=O)[C@H](Cc1c[nH]cn1)NC(=O)[C@H](CC(=O)O)NC(=O)[C@H](CO)NC(=O)[C@@H](NC(=O)[C@](C)(Cc1ccccc1F)NC(=O)[C@@H](NC(=O)CNC(=O)[C@H](CCC(=O)O)NC(=O)C(C)(C)NC(=O)[C@@H](N)Cc1ccc(O)cc1)[C@@H](C)O)[C@@H](C)O)[C@@H](C)CC)[C@@H](C)O)[C@@H](C)CC)C(=O)N[C@@H](CCC(=O)O)C(=O)NCC(=O)NCC(N)=O` [Example 166] (H-Y[Aib]EGT[αMePhe(2-F)]TSDHSI[αMeL]LDEK([AEEA-AEEA-γGlu-C20 diacid])AQ[Aib]TFI[dE]YLIEGG-NH2; N-terminus assumed), the EC50 in experiment [1] is 4.08 nM; in experiment [2], 0.355 nM.

With `CC[C@H](C)[C@H](NC(=O)[C@H](CC(C)C)NC(=O)[C@H](Cc1ccc(O)cc1)NC(=O)[C@@H](CCC(=O)O)NC(=O)[C@@H](NC(=O)[C@H](Cc1ccccc1)NC(=O)[C@@H](NC(=O)C(C)(C)NC(=O)[C@H](CCC(N)=O)NC(=O)[C@H](C)NC(=O)[C@H](CCCCNC(=O)COCCOCCNC(=O)COCCOCCNC(=O)CC[C@H](NC(=O)CCCCCCCCCCCCCCCCCCC(=O)O)C(=O)O)NC(=O)[C@H](CCC(=O)O)NC(=O)[C@H](CC(=O)O)NC(=O)[C@H](CC(C)C)NC(=O)[C@](C)(CC(C)C)NC(=O)[C@@H](NC(=O)[C@H](CO)NC(=O)[C@H](Cc1c[nH]cn1)NC(=O)[C@H](CC(=O)O)NC(=O)[C@H](CO)NC(=O)[C@@H](NC(=O)[C@](C)(Cc1ccccc1F)NC(=O)[C@@H](NC(=O)CNC(=O)[C@H](CCC(=O)O)NC(=O)C(C)(C)NC(=O)[C@@H](N)Cc1ccc(O)cc1)[C@@H](C)O)[C@@H](C)O)[C@@H](C)CC)[C@@H](C)O)[C@@H](C)CC)C(=O)N[C@@H](CCC(=O)O)C(=O)NCC(=O)NCC(=O)N1CCC[C@H]1C(=O)N[C@@H](CO)C(=O)N[C@@H](CO)C(=O)NCC(N)=O` [Example 167] (H-Y[Aib]EGT[αMePhe(2-F)]TSDHSI[αMeL]LDEK([AEEA-AEEA-γGlu-C20 diacid])AQ[Aib]TFI[dE]YLIEGGPSSG-NH2), the results for the concentration for a half-maximal effect (EC50) in experiment [1] and in experiment [2] were 1.2 nM and 0.617 nM, respectively.

Take `CC[C@H](C)[C@H](NC(=O)[C@H](CC(C)C)NC(=O)[C@H](Cc1ccc(O)cc1)NC(=O)[C@@H](CCC(=O)O)NC(=O)[C@@H](NC(=O)[C@H](Cc1ccccc1)NC(=O)[C@@H](NC(=O)C(C)(C)NC(=O)[C@H](CCC(N)=O)NC(=O)[C@H](C)NC(=O)[C@H](CCCCNC(=O)COCCOCCNC(=O)COCCOCCNC(=O)CC[C@H](NC(=O)CCCCCCCCCCCCCCCCCCC(=O)O)C(=O)O)NC(=O)[C@H](CCC(=O)O)NC(=O)[C@H](CC(=O)O)NC(=O)[C@H](CC(C)C)NC(=O)[C@](C)(CC(C)C)NC(=O)[C@@H](NC(=O)[C@H](CO)NC(=O)[C@H](Cc1c[nH]cn1)NC(=O)[C@H](CC(=O)O)NC(=O)[C@H](CO)NC(=O)[C@@H](NC(=O)[C@](C)(Cc1ccccc1F)NC(=O)[C@@H](NC(=O)CNC(=O)[C@H](CCC(=O)O)NC(=O)C(C)(C)NC(=O)[C@@H](N)Cc1ccc(O)cc1)[C@@H](C)O)[C@@H](C)O)[C@@H](C)CC)[C@@H](C)O)[C@@H](C)CC)C(=O)N[C@@H](CCC(=O)O)C(=O)NCC(=O)NCC(=O)N1CCC[C@H]1C(=O)N[C@@H](CO)C(=O)N[C@@H](CO)C(=O)NCC(=O)N[C@@H](C)C(=O)N1CCC[C@H]1C(=O)N1CCC[C@H]1C(=O)N1CCC[C@H]1C(=O)N[C@@H](CO)C(N)=O` [Example 168] (H-Y[Aib]EGT[αMePhe(2-F)]TSDHSI[αMeL]LDEK([AEEA-AEEA-γGlu-C20 diacid])AQ[Aib]TFI[dE]YLIEGGPSSGAPPPS-NH2): the values for the EC50 in experiment [1] and in experiment [2] were 1.8 nM and 0.572 nM, respectively.

Take `CC[C@H](C)[C@H](NC(=O)[C@H](CC(C)C)NC(=O)[C@H](Cc1ccc(O)cc1)NC(=O)[C@@H](CCC(=O)O)NC(=O)[C@@H](NC(=O)[C@H](Cc1ccccc1)NC(=O)[C@@H](NC(=O)C(C)(C)NC(=O)[C@H](CCC(N)=O)NC(=O)[C@H](C)NC(=O)[C@H](CCCCNC(=O)COCCOCCNC(=O)COCCOCCNC(=O)CC[C@H](NC(=O)CCCCCCCCCCCCCCCCC(=O)O)C(=O)O)NC(=O)[C@H](CCC(=O)O)NC(=O)[C@H](CC(=O)O)NC(=O)[C@H](CC(C)C)NC(=O)[C@](C)(CC(C)C)NC(=O)[C@@H](NC(=O)[C@H](CO)NC(=O)[C@H](Cc1c[nH]cn1)NC(=O)[C@H](CC(=O)O)NC(=O)[C@H](CO)NC(=O)[C@@H](NC(=O)[C@](C)(Cc1ccccc1F)NC(=O)[C@@H](NC(=O)CNC(=O)[C@H](CCC(=O)O)NC(=O)C(C)(C)NC(=O)[C@@H](N)Cc1ccc(O)cc1)[C@@H](C)O)[C@@H](C)O)[C@@H](C)CC)[C@@H](C)O)[C@@H](C)CC)C(=O)N[C@@H](CCC(=O)O)C(=O)NCC(=O)NCC(=O)N1CCC[C@H]1C(=O)N[C@@H](CO)C(=O)N[C@@H](CO)C(=O)NCC(=O)N[C@@H](C)C(=O)N1CCC[C@H]1C(=O)N1CCC[C@H]1C(=O)N1CCC[C@H]1C(=O)N[C@@H](CO)C(N)=O` [Example 169] (H-Y[Aib]EGT[αMePhe(2-F)]TSDHSI[αMeL]LDEK([AEEA-AEEA-γGlu-C18 diacid])AQ[Aib]TFI[dE]YLIEGGPSSGAPPPS-NH2): the figures for the EC50 in experiment [1] and in experiment [2] were 3.37 nM and 0.86 nM, respectively.

As a reminder, the EC50 is the concentration needed to bring the measured effect to its halfway point.
